Data reported in patent US7294511B2, “Methods for delivering nucleic acid molecules into cells and assessment thereof” (Chromos Molecular Systems, Inc., priority 2001, dated 2007).

Legend:
[1] = system: Hep-G2 cells; assay: Ultrasound mediated transfection of Hep-G2 cells with GFP chromosomes and Saint-2; format: cell-based
Protocol: (§1) Alternatively, the medium was removed from the cells, and the cells were washed twice with HBSS. 500 μl HBSS/lipid solution at 37° C. was added to each well. The HBSS/lipid solution was prepared by adding 1 μl ethanolic lipid solution (prepared as described above) to 500 μl HBSS under vigorous vortexing. The plates were then sealed with parafilm tape and shaken gently at room temperature for 30 min. After incubation, ultrasound was applied at an output energy of 0.5 Watt/cm^2 for 60 sec through the bottom of the plate to the cells. The ultrasound was mediated by an ultrasound gel (Aquasonic 100, Parker, N.J.) between transducer and plate. The ultrasound was applied with an ImaRx Sonoporator 100. Immediately after applying ultrasound one GFP chromosome per seeded cell (2×10^5-5×10^5) (prepared in Example 1) was added. The plate was then sealed again and shaken gently for 1 h at room temperature. After the incubation 1 ml medium (CHO—S-SFM 2 with 10% Fetal Calf Serum, 10000 μg/ml Penicillin and 10000 μg/ml Streptomycin Gibco BRL, Paisley, UK) was added to each well and the cells were incubated for 24 h at 37° C. The cells were then washed with medium, 1 ml medium was added, and the cells were incubated at 37° for another 24 h. Detection of expressed genes was then assayed by microscopy or detection of the transferred chromosome by FISH analysis. […]

[2] = system: CHO-KI cells; assay: Ultrasound mediated transfection of CHO-KI cells with GFP chromosomes and Saint-2; format: cell-based
Protocol: Vesicles were prepared at a lipid concentration of 700 nmol/ml lipid (cationic lipid/DOPE 1:1) as follows. In a glass tube (10 ml) 350 nmol cationic lipid (SAINT-2) was mixed with 350 nmol dioleoylphosphatidylethanolamine (DOPE), both solubilized in an organic solvent (Chloroform, Methanol or Chloroform/Methanol 1:1, v/v). dioleoylphosphatidylethanolamine (DOPE; Avanti Polar Lipids, Alabaster, Ala.) forms inverse hexagonal phases in a membrane and weakens the membrane. Other effectors that may be used are cis-unsaturated phosphatidylethanolamines, cis-unsaturated fatty acids, and cholesterol.
The solvent was evaporated under a stream of nitrogen (15 min/250 μl solvent at room temperature). The remaining solvent was removed totally by drying the lipid for 15 min in an desiccator under high vacuum from a vacuum pump. To the dried mixture was added 1 ml ultrapure water. This was vortexed vigorously for about 5 min. The resulting solution was sonicated in an ultrasonication bath (Laboratory Supplies Inc. N.Y.) until a clear solution was obtained. The resulting suspension contained a population of unilamellar vesicles with a size distribution between 50 to 100 nm.
CHO-KI cells were grown at 37° C., 5% CO2, in CHO—S-SFM 2 Medium, (Gibco BRL, Paisley, UK). Between 2×10^5 and 5×10^5 cells were plated onto sterile glass slides in a 12 well plate 24 h before usage.
Transfection of the cells was performed as follows. The medium was removed from the cells, and the cells were washed twice with HBSS (Hanks balanced salt solution without Phenol Red (Gibco BRL, UK)) at 37° C. Then 500 μl HBSS at 37° C. was added per well, followed by 10 μl of the freshly prepared vesicle solution (prepared in Example 2) to yield a final concentration of 23.3 nmol/ml.
as §1, with “temperature.” for “temperature. After the incubation 1 ml medium (CHO—S-SFM 2 with 10% Fetal Calf Serum, 10000 μg/ml Penicillin and 10000 μg/ml Streptomycin Gibco BRL, Paisley, UK) was added to each well and the cells were incubated for 24 h at 37° C. The cells were then washed with medium, 1 ml medium was added, and the cells were incubated at 37° for another 24 h. Detection of expressed genes was then assayed by microscopy or detection of the transferred chromosome by FISH analysis.”

[3] = system: A9 cells; assay: Ultrasound mediated transfection of A9 cells with GFP chromosomes and Saint-2; format: cell-based, murine
Protocol: as §1

cells remained on the glass slide after transfection ([1]; Hep-G2, Saint-2/DOPE, ultrasound 0.5 Watt/cm^2 60 sec): 30% | cells remained on the glass slide after transfection ([2]; Saint-2/DOPE, ultrasound 0.5 Watt/cm^2 60 sec, visual inspection): 30% | cells remained on the glass after transfection ([3]; A9, Saint-2/DOPE, ultrasound 0.5 Watt/cm^2 60 sec): 30%
SMILES: CCCCCCCCC=CCCCCCCCCC(CCCCCCCCC=CCCCCCCCC)c1cc[n+](C)cc1.[Cl-] (centres unmarked) [Saint-2, 1-methyl-4-(1-octadec-9-enyl-nonadec-10-enylenyl)pyridinium chloride]
remaining cells positive for green fluorescent protein expression ([1]; Hep-G2, of the cells remaining on the slide): 80% | GFP positive cells as % of original population ([2]; after 48 hours): 3% | remaining cells positive for green fluorescent protein expression ([2]; after 48 hours, of the cells remaining on the slide): 10% | cells containing an intact artificial chromosome (FISH) ([2]; after culturing for two weeks): 1.4% | remaining cells positive for green fluorescent protein expression ([3]; A9, of the cells remaining on the glass): 50%
